Like-named read-outs stand apart in the source and are kept apart here.
How the values were obtained:
[1] = system: IFN-gamma production in concanavalin A stimulated primary human CD4+ T-cells; experiment: IFN-gamma production (Th1 profile) in concanavalin A stimulated primary human CD4+ T-cells; assay type: cell-based; settings: T-cell, 10 μg/mL Concanavalin A, 48 hours, X marks this range, read-out: INF-GAMMA IC50 RANGE (μM) 0.2-2.0
Text: The assay on the primary human T-cells involves their activation by concanavalin A (conA); (Sigma, Catalogue No. C 5275), followed by ELISA detection for cytokines for either profile. In the case of Th1-profiles, IL-2 and INF-γ are used as benchmarks while IL-10 is the indicator for a Th2-profile. Biologically, these indicators are useful in that IL-2 is the major T-cell mitogen while IL-10 represents a powerful yet selective immunosuppressive agent.
Approximately 60 cc of whole human blood was collected into ACD anti-coagulant vacutainer tubes. 15 mL Ficoll Paque 1077 was aliquoted into 6 sterile 50 mL conical tubes. 10 mL of blood was slowly layered on top of the Ficoll Paque by holding the tube upright and resting the pipette tip at the inside edge of the tube and allowing the blood to slowly run down the side of the tube. Tubes were spun at 1700 rpm for 30 minutes at room temperature. The plasma layer above the leukocyte band was aspirated off and a pasteur pipette was used to lift off the leukocyte band and transfer it to a sterile 50 mL conical tube. Cells from each leukocyte gradiant tube were transferred to a separate 50 mL conical tube. Sterile PBS pH 7.4 was added to each 50 mL conical tube containing cells from leukocyte band to a volume of 50 mL. Tubes were spun at 1100 rpm for 10 minutes. Supernatant was aspirated off and the cells were resuspended in 50 mL PBS pH 7.4. Tubes were re-centrifuged at 1100 rpm for 10 minutes. Supernatant was aspirated off and the cells were resuspended in appropriate medium at a density of 5×10^7 cells/mL or 2×10^6 cells/mL.
CD 4+T-cell Preparation: Cells from Leukocyte preparation were resuspended in sterile PBS pH 7.4 supplemented with 2-6% Fetal Bovine Serum (FBS) at a density of 5×10^7 cells/mL. Cells were then ready for isolation.
100 μL of antibody cocktail (Stem Cell Technologies, Catalogue No. 14062) was added for each mL of cells and mixed well. Cells+Ab cocktail was incubated on ice for 30 minutes. After 30 minute incubation, 60 μL of magnetic colloid was added for each mL of cells, and mixed well. Cells+Ab cocktail+magnetic colloid were incubated on ice for 30 minutes. After a final 30 minute incubation cells were ready for magnetic cell separation.
Sample was loaded into the top of a column. The stopcock was turned to allow the flow of media down through the column, and the media was collected into a collection tube. PBS supplemented with 2-6% FBS was added to the column until three column volumes had been collected (not including the volume of the start sample). Cells were washed, counted, and resuspended in RPMI 1640 with 10% FBS+2 mM L-glutamine at a density of 1×10^6 cells/mL.
CD4+ T-cells were isolated as described above. Cells were suspended in RPMI 1640 media (Stem Cell Technologies Inc.; Catalogue No. 36750) with 10% FBS+2 mM L-glutamine at a density of 1×10^6 cells/mL. Cells were maintained on ice as test compounds were prepared. Test compounds were prepared in a sterile 96-well assay plate at 50×the final desired test concentration, all wells contained an equal amount of dimethylsulfoxide vehicle. 500 μL of CD4^+ T-cells were added to each well of 24-well assay plate. 10 μL of each test compound working solution was added to the appropriate wells; two wells were left as stimulated and non-stimulated controls. 10 μL of concanavalin A (50×the final concentration) at 10 μg/mL was added to each well with the exception of the non-stimulated control wells. Cells were incubated at 37° C. for 48 hours. Conditioned media is then assessed by ELISA for the quantity of IL-2, […], TNFα and IL-10 present.
Tables 5A, 5B and 5C represent a synopsis of data across individuals with respects to the potency of compounds of the invention in their ability to inhibit cytokines that are likely to promote or depress a Th1 or Th2 response. […]

[2] = system: cAMP Phosphodiesterase 4 from Human U937 Cells; experiment: Inhibition of cAMP phosphodiesterase 4 from human U937 cells; assay type: biochemical
Procedure: PDE's 1 through 4 utilize cAMP as substrate while PDE 5 uses cGMP. […] PDE's for the various assays were partially purified from the following cells/tissues; PDE 1 (bovine heart), PDE 2 (human platelets), PDE 3 (human platelets), PDE 4 (human promonocytic U937 cells) and PDE 5 (human platelets).
Sonicated cell extracts were then centrifuged at 70,000 g for 30 minutes and supernatants removed. Sucrose was added to a final concentration of 0.25 M, aliquoted and stored at −80° C.
PDE reactions were performed for 30 minutes at 37° C. in 20 μL volumes in 1 μM [^3H] cAMP (Amersham website http://www.apbiotech.com), 0.5 U/mL 5′ nucleotidase (Sigma), 50 mM Tris Cl, 10 mM MgCl pH 7.5. U937 extract was added such that less than 10% of substrate was consumed. Test compound or vehicle was added to the desired concentration. […] Reactions were performed in duplicate. Reactions were terminated by addition of 200 μL Dowex 1-8400 Cl^− anion exchange resin in a ratio of 1 resin: 2 methanol: 1H2O. Samples were mixed by inversion and then allowed to settle for 2-3 hours.

[3] = system: primary human neutrophils; experiment: fMLP-induced human neutrophil chemotaxis; assay type: cell-based; settings: for IC50: fMLP-induced chemotaxis, X marks this range, read-out: IC50 RANGE (μM) 10-100
Procedure: Chemotaxis buffer containing the chemoattractant fMLP (10 μM) was added to each well of a chemotaxis plate and a filter was inserted ensuring contact between the filter and the chemotaxis buffer in the well. A submaximal concentration of chemoattractant was used which had been determined in previous experiments. […] Freshly isolated neutrophils (1×10^6) were incubated with vehicle (0.125% DMSO)±test compound for 1 hr at 37° C. Treatment and control cell suspensions were then gently resuspended and 20 μL of cells was added to the top side of the filter on each well. The plate was incubated for 1.5 hours at 37° C. under 5% CO2. Cells were then removed from the top side of the filter by aspiration and the entire plate was centrifuged. The filter was removed and known concentrations of cells were added to unused wells to prepare a standard curve. XTT (Sigma; Catalogue No. X 4251)/PMS (Sigma; Catalogue No. P 7626) solution prepared in buffer was added to each well and the cells were further incubated 1-2 hours and measured for absorbance at 450 nm. Absorbance values were converted to cell numbers using the standard curve. IC50 values are averages from at least three separate experiments with triplicate determinations.

Row | SMILES | IC50 [1] | other results
1 | COc1cc(CC2C[C@@H](c3ccc(OC)c(OC4CCCC4)c3)COC2=O)ccc1O (stereo partly drawn) [Compound 43] | 0.2 to 2 µM | IC50 ([2]; read-out: IC50 against the catalytic activity of PDE4): 0.26 µM
2 | COc1ccc([C@H]2CNC(=O)C(Cc3ccc(OCc4ccccc4)c(OC)c3)C2)cc1OC (stereo partly drawn) [Compound 54] | 0.2 to 2 µM | 
3 | COc1cc(CC2C[C@@H](c3ccc(OC)c(OC4CCCC4)c3)CNC2=O)ccc1O (stereo partly drawn) [Compound 62] | 0.2 to 2 µM | 
4 | COc1ccc(C2CNC(=O)C2)cc1OC1CCCC1 (stereo not drawn) [Rolipram, reference compound] | 0.2 to 2 µM | inhibition at 12.5 µM ([3]; at 12.5 μM, positive control): 85%
5 | COc1cc(C[C@@H]2CC(c3ccc(OC)c(OC)c3)COC2=O)ccc1O (mixture of isomers) [Compound 12] |  | IC50 [3]: 10 to 100 µM; IC50 ([2]; human promonocytic U937 cells, read-out: IC50 PDE 4): 5.9 µM
6 | COc1cc(CC2C[C@@H](c3ccc(OC)c(OC)c3)CNC2=O)ccc1O (stereo partly drawn) [Compound 55] | 0.2 to 2 µM | 
7 | COc1cc(C[C@@H]2C[C@@H](c3ccc(OC)c(OC)c3)COC2=O)ccc1O [Compound 30] | 0.2 to 2 µM | IC50 [3]: 10 to 100 µM; IC50 ([2]; PDE4 from U937 extract, 1 μM [3H] cAMP, X marks this range, read-out: IC50 range (μM) 1-10): 1 to 10 µM
